Here are results for four compounds from patent US8709406B2, “Prevention and treatment of oxidative stress disorders by gluthathione and phase II detoxification enzymes” (Brassica Foundation for ChemoProtection Research, priority 2001, dated 2014).

Format in all cases: cell-based, human
Assay [1] has as its system ARPE-19 cells. Nature of the assay: Oxidant cytotoxicity (MTT viability, median effect analysis) and protection by 24 h sulforaphane pretreatment. The following applies: for EC50: Homo sapiens. The procedure:
(§1) All experiments were performed in 96-well microliter plates. ARPE-19 and HaCaT cells were seeded at 10,000 cells per well and grown for 24 h before addition of sulforaphane, whereas L1210 cells (5,000 cells/well) were not incubated before sulforaphane treatment. Solutions of sulforaphane (5 mM) in dimethyl sulfoxide were diluted with the cognate culture medium to provide final inducer concentrations of 0.16-5.0 μM. The final DMSO concentrations were 0.1% by volume.
Tert-Butyl hydroperoxide (1 M) and 4-hydroxynonenal (25 mM) were dissolved in DMSO and diluted 1000-fold with serum-free medium before addition of serial dilutions to the microtiter plate wells. The final concentrations of DMSO were therefore less than 0.1% (by vol.). Menadione sodium bisulfite (0.5 M) and SIN-1 (0.5 M) were dissolved and added in PBS. ARPE-19 cells were exposed to menadione for 2 h and to tert-butyl hydroperoxide for 16 h, washed with PBS, and cell viability was determined by the MIT test. ARPE-19 cells were exposed to peroxynitrite for 2 h and 4-hydroxynonenal for 4 h, and the cells were then incubated in serum-free media for 22 and 20 h, respectively, washed with PBS, and cell viability was determined. The additional incubation periods were required for peroxynitrite and 4-hydroxynonenal to evoke maximal cytotoxicity.
(§2) Cell viability was determined by spectroscopic measurement of the reduction of MTT (Carmichael, J., DeGraff, W. G., Gazdar, A. F., Minna, J. D. & Mitchell, J. B. (1987) Cancer Res. 47, 936-942). The culture media were discarded after the designated incubation periods, the cells were washed three times with PBS by use of a microtiter plate washer (Ultrawash Plus, Dynex Technologies, Chantilly, Va.). Each well then received 150 μl of an MTT solution (0.5 mg/ml) in serum-free medium. The plates were incubated for 2 h at 37° C., the MTT solution was discarded, 100 μl of DMSO were added to each well, and the plates were shaken at 200 rpm on an orbital shaker for 5 min. The absorbances of the wells were determined at 555 nm with a microtiter plate reader (Spectra Max Plus, Molecular Devices, Sunnyvale, Calif.). The absorbance of reduced MIT was then compared at each inducer and oxidant concentration to that of untreated control cells that received only the vehicle in which sulforaphane (DMSO) and menadione (DMSO or PBS) were dissolved. In each experiment three identical 96-well plates were used and the means of the absorbance values, the standard deviations of these means, and their coefficients of variation were calculated.
(§3) Dose-effect analyses were performed according to the Median Effect Equation, by use of a computer program (Chou, T. C. & Hayball, M. (1996) CalcuSyn for Windows 3.1 and 95: multiple dose effect analyzer and manual for IBM-PC, Biosoft, Cambridge, U.K). The equation: fa/fu=[D/Dm]^m, where fa is the fraction of cells affected by the oxidant, fu is the fraction unaffected (i.e., 1-fa), D is the dose of oxidant required to produce the effect fa, Dm is the concentration of oxidant required to produce a 50% effect, i.e., when fa=fu, and the slope m is a measure of the sigmoidicity of the dose-response curve, and is therefore a measure of cooperativity. The results are analyzed by plotting log(fa/fu) with respect to log D of the oxidant. The computer program provides the slope (m) of the curves, and the goodness of fit (r^2) to linearity.

The test system of assay [2] is Retina Pigment Epithelium Cell. Put plainly: Photooxidative damage by all-trans-retinal and 365 nm light, protection by sulforaphane (cell survival). The following applies: sulforaphane 0.00 μM. Here is the method: There is accumulating evidence that chronic exposure to sunlight plays a role in some degenerative diseases, for instance, age-related macular degeneration (AMD). We have, therefore, carried out an experiment of protection of human RPE cells against photooxidative damage mediated by all-trans-retinal, which exists in human retina and is a critical component of the visual cycle.
as §2
To examine the protective effect of sulforaphane against photooxidative damage mediated by all-trans-retinal and light exposure, the cells were treated with 0-100 μM of all-trans-retinal for 2 hours and light exposure at 365 nm for 20 min after incubation with 0-5 μM of sulforaphane for 24 hours.

The test system of assay [3] is HaCaT cells. Nature of the assay: tert-Butyl hydroperoxide cytotoxicity (MTT, median effect analysis) and protection by sulforaphane. The procedure: Mouse L1210 leukemia cells, a gift from Dr. Joseph G. Cory, East Carolina State University, Greenville, N.C., were grown in RPMI 1640 medium supplemented with 10% horse serum. All cultures were incubated in a humidified atmosphere of 5% CO2 at 37° C. Media and sera were obtained from Life Technologies (Rockville, Md.).
as §1, §2, §3

Where [4] appears, read: ARPE-19, mean over sulforaphane 0-2.5 μM.

Like-named read-outs stand apart in the source and are kept apart here.

As for `CCCCCC(O)C=CC=O` (centres unmarked) [4-hydroxynonenal, 4-Hydroxynon-2-enal, reference compound], the “m (slope of median effect plot) for 4-hydroxynonenal” value in assay [1] (ARPE-19, 4-hydroxynonenal 4 h, sulforaphane 0.00 μM) is given as 2.85. The “mean slope m for 4-hydroxynonenal” value in assay [1] (setting [4]) is 2.66. In assay [1] (ARPE-19, 4 h, ARPE-19, 4-hydroxynonenal 4 h, sulforaphane 0.00 μM, read-out: Dm (median effect concentration) of 4-hydroxynonenal), the EC50 turned out to be 8.7 µM.
Consider `O=NOO` [Peroxynitrite, reference compound], for which the “mean slope m for peroxynitrite” value in assay [1] (setting [4]) is reported as 6.29. The “m (slope of median effect plot) for peroxynitrite” value in assay [1] (ARPE-19, peroxynitrite (from SIN-1) 2 h, sulforaphane 0.00 μM) was 6.07. Moreover, in assay [1] (ARPE-19, 2 h, ARPE-19, peroxynitrite (from SIN-1) 2 h, sulforaphane 0.00 μM, read-out: Dm (median effect concentration) of peroxynitrite), the EC50 stood at 1440 µM.
For `CC1=C(/C=C/C(C)=C/C=C/C(C)=C/C=O)C(C)(C)CCC1` [All-trans-Retinal, all-trans-retinal, reference compound], the Survival in assay [2] (365 nm light, all-trans-retinal 12.5 μM) is given as 83.6%; in assay [2] (365 nm light, all-trans-retinal 25 μM), 41.9%; in assay [2] (365 nm light, all-trans-retinal 50 μM) it was 9.4%; in assay [2] (365 nm light, all-trans-retinal 100 μM) it was 3.1%; in assay [2] (in dark, all-trans-retinal 12.5 μM), 96.3%; in assay [2] (in dark, all-trans-retinal 25 μM), 97.6%. The Survival came to 96.8% in assay [2] (in dark, all-trans-retinal 50 μM) and 75.0% in assay [2] (in dark, all-trans-retinal 100 μM).
Take `CC(C)(C)OO` [tert-Butyl hydroperoxide, Tert-Butyl hydroperoxide, reference compound]: the “mean slope m for tert-butyl hydroperoxide” value in assay [1] (setting [4]) is listed as 1.93. The “m (slope of median effect plot) for tert-butyl hydroperoxide” value in assay [1] (ARPE-19, tert-butyl hydroperoxide 16 h, sulforaphane 0.00 μM) came to 2.52; in assay [3] (tert-butyl hydroperoxide 8 h, sulforaphane 0.00 μM) it was 0.899. The EC50 in assay [1] (ARPE-19, 16 h, read-out: Dm (median effect concentration) of tert-butyl hydroperoxide) was found to be 95.8 µM; in assay [3] (Homo sapiens, 8 h, read-out: Dm (median effect concentration) of tert-butyl hydroperoxide), 63.5 µM. In addition, the “slopes of the median effect plots for tert-butyl hydroperoxide” value in assay [3] (over the sulforaphane concentrations) is on record as 0.8-1.2.
